Here are results for 57 compounds from patent publication EP0136745A2, “Benzoyl urea derivatives having anti-tumor activity” (DUPHAR INTERNATIONAL RESEARCH B.V, priority 1983, dated 1985).

Molecules are shown by their SMILES.

A word on the inhibition: it is the relative decrease from the control value, in per cent. A high value points to a response far below the control.

The assay has as its system B16 melanoma cells. The assay is described as follows: Sensitivity of B16 melanoma cells, in vitro cell growth inhibition (Coulter Counter cell count). In kind it is cell-based. The conditions noted are these: Mus musculus, dosage of 500 /ug/ml, aqueous suspension, incubation 20 hours at 37°C, cells counted 48 hours after beginning of incubation, inhibition of cell growth with respect to control. The method, then:
The anti-tumor activity was tested in an in vitro test. In this test the sensitivity of B16 melanoma cells to the new compounds according to the invention was determined.
B16 melanoma cells grow as a "monolayer". The doubling time of said cells in a cell culture is 12-16 hours.
On day O a quantity of 5 x 10^4 B 16 melanoma cells is provided in each cell culture dish.
On day 1 the compounds to be tested are vortexed in the presence of glass-beads. The compound to be tested is then addei to the dishes comprising melanoma cells in the desired quantity. Incubation takes place in a CO2--incubator at 37°C for 20 hours. The incubation is terminated by removing the culture medium with therein the compound to be tested, after which the cells are washed twice and fresh medium is added.
Forty-eight hours after the beginninq of the incubation the quantity of cells in each dish is measured by means of a microcell Coulter Counter. The results thus obtained are expressed by indicating the activity cf the compounds as 1+, 2+, 3+, 4+ or 5+, which has the following meaning: • 1+ : cel growth is inhibited 1- 20% with respect to control. • 2+ : cel growth is inhibited 20- 40% with respect to control. • 3+ : cel growth is inhibited 40- 60% with respect to control. • 4+ : cel growth is inhibited 60- 80% with respect to control. • 5+ : cel growth is inhibited 80-100% with respect to control.
Various compounds according to the invention were tested in the above-described manner in a dosage of 500 /ug/ml in the form of an aqueous suspension.

In turn, `O=C(NC(=O)c1cc([N+](=O)[O-])ccc1O)Nc1ccc(Cl)cc1` [Compound 9] showed an inhibition at 500 µg/mL of 60 to 80%.

Compound `O=C(NC(=O)c1c(Cl)ccc(O)c1Cl)Nc1ccc(Cl)cc1` [Compound 1] returned an inhibition at 500 µg/mL of 80 to 100%.

`O=C(NC(=O)c1ccccc1OCc1ccccc1)Nc1ccc(Cl)cc1` [Compound 54, 1-(2-benzyloxybenzoyl)-3-(4-chlorophenyl)urea] returned an inhibition at 500 µg/mL of 20 to 40%. As for `CCCCOC(=O)c1ccc(NC(=O)NC(=O)c2c(Cl)cccc2OC(C)=O)cc1O` [Compound 44], the figure is 60 to 80%; as for `O=C(NC(=O)c1c(F)cccc1F)Nc1ccc(O)c(C(F)(F)F)c1` [Compound 26], 80 to 100%; as for `CC(=O)Oc1cccc(Cl)c1C(=O)NC(=O)Nc1ccc(OC(F)(F)C(F)F)cc1` [Compound 14], 80 to 100%.

Compound `O=C(NC(=O)c1c(Cl)ccc(OCc2ccccc2)c1Cl)Nc1ccc(Cl)cc1` [Compound 3] displayed an inhibition at 500 µg/mL of 40 to 60%. Regarding `O=C(NC(=O)c1c(Cl)cc(O)cc1Cl)Nc1ccc(Cl)c(Cl)c1` [Compound 21], the inhibition at 500 µg/mL fell in the range of 60 to 80%. Turning to `CC(=O)Oc1cccc(Cl)c1C(=O)NC(=O)Nc1ccc(Cl)cc1` [Compound 7], the inhibition at 500 µg/mL was 80 to 100%. The same measure for `O=C(NC(=O)c1cc(Cl)ccc1O)Nc1ccc([N+](=O)[O-])cc1Cl` [Compound 20]: 40 to 60%; for `O=C(NC(=O)c1c(F)cccc1F)Nc1ccc(Oc2ccc(Cl)cc2)c(Cl)c1` [Compound 31]: 40 to 60%. The same measure for `O=C(NC(=O)c1ccccc1Cl)Nc1ccc(O)c(C(F)(F)F)c1` [Compound 27]: 40 to 60%; for `CC(=O)Oc1ccc(C)cc1NC(=O)NC(=O)c1c(Cl)cccc1OC(C)=O` [Compound 43]: 80 to 100%. As to `CC(=O)Oc1ccc(Cl)c(C(=O)NC(=O)Nc2ccc(C(F)(F)F)cc2)c1Cl` [Compound 5], the inhibition at 500 µg/mL is 80 to 100%. The same measure for `CC(=O)Oc1ccccc1NC(=S)NC(=O)c1ccccc1` [Compound 51]: 60 to 80%.

Consider `CC(=O)Oc1ccc(NC(=O)NC(=O)c2cc(C(C)(C)C)c(O)c(C(C)(C)C)c2)cc1` [Compound 47], for which the inhibition at 500 µg/mL is 60 to 80%. The compound `CC(=O)Oc1ccc(C(=O)NC(=O)Nc2ccc(O)c(C(F)(F)F)c2)cc1Cl` [Compound 56] registered an inhibition at 500 µg/mL of 40 to 60%.

The compound `CC(=O)Oc1ccc(C(=O)NC(=O)Nc2ccc(O)cc2)cc1Cl` [Compound 48] had an inhibition at 500 µg/mL of 60 to 80%. As for `Cc1cc(Cl)ccc1NC(=O)NC(=O)c1c(O)cccc1O` [Compound 13], the figure is 60 to 80%; as for `O=C(NC(=O)c1c(O)cccc1O)Nc1ccc(Cl)cc1` [Compound 11], 80 to 100%.

In the case of `CC(C)(C)c1cc(NC(=O)NC(=O)c2ccccc2Cl)cc(C(C)(C)C)c1O` [Compound 37], the inhibition at 500 µg/mL is 80 to 100%. Turning to `CC(=O)Oc1cc(OC(F)(F)F)ccc1NC(=O)NC(=O)c1ccccc1Cl` [Compound 30], the inhibition at 500 µg/mL was 40 to 60%. As for `CC(=O)Oc1ccc(Cl)c(C(=O)NC(=O)Nc2ccc(Cl)cc2)c1Cl` [Compound 2], the figure is 60 to 80%. As for `O=C(NC(=O)c1c(Cl)cccc1Cl)Nc1cccc(OC(=O)Nc2ccccc2)c1` [Compound 33], the figure is 80 to 100%.

In the case of `O=C(NC(=O)c1ccccc1OC(=O)c1ccccc1)Nc1ccc(Cl)cc1` [Compound 17], the inhibition at 500 µg/mL was in the range of 60 to 80%.

The compound `CC(=O)Oc1cccc(Cl)c1C(=O)NC(=O)Nc1ccc(O)cc1` [Compound 40] displayed an inhibition at 500 µg/mL of 60 to 80%.

Regarding `CC(=O)Oc1cc(C(F)(F)F)ccc1NC(=O)NC(=O)c1ccccc1Cl` [Compound 29], the inhibition at 500 µg/mL fell in the range of 40 to 60%. As for `CC(=O)Oc1cc(C(F)(F)F)ccc1NC(=O)NC(=O)c1c(F)cccc1F` [Compound 25], the figure is 80 to 100%; as for `CC(=O)Oc1cccc(Cl)c1C(=O)NC(=O)Nc1ccc([N+](=O)[O-])cc1O` [Compound 42], 80 to 100%; as for `CC(=O)Oc1cccc(Cl)c1C(=O)NC(=O)Nc1cc(Br)cc(Br)c1O` [Compound 45, 1-(2-acetoxy-6-chlorobenzoyl)-3-(2-hydroxy-3,5-dibromophenyl)urea], 80 to 100%. As for `CC(=O)Oc1cc(NC(=O)NC(=O)c2c(Cl)cccc2OC(C)=O)ccc1Cl` [Compound 39], the figure is 80 to 100%; as for `O=C(NC(=O)c1ccccc1O)Nc1ccc([N+](=O)[O-])cc1Cl` [Compound 10], 60 to 80%. `CC(=O)Oc1cccc(Cl)c1C(=O)NC(=O)Nc1ccc(C(=O)c2ccccc2)cc1` [Compound 23] came in with an inhibition at 500 µg/mL of 80 to 100%. The same measure for `O=C(NC(=O)c1cc(I)cc(I)c1O)Nc1ccc(Cl)cc1` [Compound 12]: 80 to 100%; for `O=C(NC(=O)c1c(F)cccc1F)Nc1ccc(OC(=O)Oc2ccc(Cl)cc2)cc1` [Compound 57]: 20 to 40%. The same measure for `CC(=O)Oc1cccc(Cl)c1C(=O)NC(=O)Nc1cc(C)ccc1O` [Compound 41]: 80 to 100%. The same measure for `Cc1cc(Cl)ccc1NC(=O)NC(=O)c1c(OCc2ccccc2)cccc1OCc1ccccc1` [Compound 22]: 40 to 60%; for `O=C(NC(=O)c1c(F)cccc1F)Nc1cc(Cl)c(C(=O)c2ccc(Cl)cc2)c(Cl)c1` [Compound 55]: 40 to 60%; for `CC(=O)Oc1cc(Cl)ccc1NC(=O)NC(=O)c1c(F)cccc1F` [Compound 24]: 80 to 100%. In the case of `O=C(NC(=O)c1c(O)cccc1Cl)Nc1ccc(Cl)c(O)c1` [Compound 38], the inhibition at 500 µg/mL lay in the range of 60 to 80%. The same measure for `CC(=O)Oc1cccc(Cl)c1C(=O)NC(=O)Nc1ccc(OC2CC(C)CCC2C(C)C)cc1` (stereo not drawn) [Compound 15]: 60 to 80%; for `O=C(NC(=S)Nc1cccc(O)c1)c1ccc(Cl)cc1Cl` [Compound 53]: 80 to 100%; for `O=C(NC(=O)c1c(O)cccc1Cl)Nc1ccc(Cl)cc1` [Compound 6]: 60 to 80%. As for `CNC(=O)Oc1ccccc1NC(=O)NC(=O)c1c(Cl)cccc1Cl` [Compound 32], the figure is 60 to 80%. As for `CCOC(=O)COc1ccc(NC(=O)NC(=O)c2c(F)cccc2F)cc1C(F)(F)F` [Compound 35], the figure is 60 to 80%; as for `CCC(=O)Oc1cccc(Cl)c1C(=O)NC(=O)Nc1ccc(Cl)cc1` [Compound 8], 60 to 80%.

Compound `O=C(NC(=O)c1ccccc1Cl)Nc1ccc(OC(=O)Cc2ccc(Cl)cc2)c(Cl)c1` [Compound 34] had an inhibition at 500 µg/mL of 40 to 60%. As for `CC(=O)Oc1ccccc1C(=O)NC(=O)Nc1cc(Cl)c(O)c(Cl)c1` [Compound 49], the figure is 80 to 100%. As for `CC(=O)Oc1cccc(Cl)c1C(=O)NC(=O)Nc1ccc(O)c(C(C)=O)c1` [Compound 46], the figure is 80 to 100%; as for `O=C(NC(=O)c1cc(Cl)c(O)c(Cl)c1)Nc1ccc(Cl)cc1` [Compound 18], 60 to 80%; as for `CC(=O)Oc1c(Cl)cc(C(=O)NC(=O)Nc2ccc(Cl)cc2)cc1Cl` [Compound 19], 60 to 80%. The same measure for `O=C(NC(=O)c1c(F)cccc1F)Nc1ccccc1S` [Compound 50]: 80 to 100%. Compound `CC(=O)Oc1cccc(Cl)c1C(=O)NC(=O)Nc1ccc(C(=O)N2CCCCC2)cc1` [Compound 16] had an inhibition at 500 µg/mL of 80 to 100%.

Regarding `O=C(NC(=O)c1c(Cl)ccc(O)c1Cl)Nc1ccc(C(F)(F)F)cc1` [Compound 4], the inhibition at 500 µg/mL is 80 to 100%.

`CSc1cccc(Cl)c1C(=S)NC(=S)Nc1ccc(Cl)cc1` [Compound 52] came in with an inhibition at 500 µg/mL of 80 to 100%. As for `Cc1ccccc1C(=O)NC(=O)Nc1ccc(O)cc1` [Compound 36], the figure is 60 to 80%.

Compound `O=C(NC(=O)c1ccccc1Cl)Nc1ccc(O)cc1OC(F)(F)F` [Compound 28] displayed an inhibition at 500 µg/mL of 80 to 100%.
